Laboratory results published in paper PMC4841536, “Characterization of the Anti-HCV Activities of the New Cyclophilin Inhibitor STG-175” (PLoS ONE, 2016).
pEC50: −log10 of the molar value. Where two headings read alike, the source gives them in different places.

Tests used:
[1] = test system: subgenomic Con1 (GT1b) replicon in Huh-7 cells; type: cell-based, hepatitis C virus; conditions: for passage at which resistant variants emerged (CypI comparison): Fig 3C
Method: Huh-7 cell expressing subgenomic Con1 (GT1b) replicon were seeded in a 10 cm dish at a density of 3 × 10^5 cells per culture flask in complete DMEM (with G418) with STG-175 or selected drugs. Cells were grown until they reached 90% confluence, trypsinized and re-seeded at the same cell concentration in a new 10-cm dish with the same drug concentration. Cells were passaged 22 times in the presence of drugs. At each passage, sample of cells were collected, RNA extracted according to the manufacturer's instructions and analyzed by RT-PCR for HCV RNA levels.
Fig 3 Replicon clearance, replication rebound and resistance analyses. […] Then drugs were removed to allow viral replication rebound to occur. At each passage, samples of cells were collected, RNA extracted and analyzed by RT-PCR for HCV RNA levels. B. Emergence of resistance: Con1 replicon Huh-7 cells were passaged 22 times in the absence or presence of STG-175 or selected DAAs. At each passage, sample of cells were collected, RNA extracted and analyzed by RT-PCR for HCV RNA levels. C. […] Data are expressed as number of HCV RNA copies per cell. […] Data are expressed as mean of relative light units and calculated EC50s are presented. […] E. Degree of resistance of D320E and Y321N Con1 variants: Left panel. Wild-type (WT), D320E and D320/Y321N NS5A Con1 RNA were electroporated into Huh7.5.1 cells and replication monitored over 8 days by quantifying the levels of intracellular HCV RNA. Right panel. Same as just above except that increasing concentrations of STG-175 were added at the time of the electroporation. […] STG-175 is taken as the substance from the printed x-axis title 'STG-175 in Log nM'.
We then examined the development of resistance to STG-175. GT1b Con1 sub-genomic replicon cells were grown in the presence of STG-175 (0.25 and 1 μM), telaprevir (2.5 and 10 μM), boceprevir (2.5 and 10 μM), daclatasvir 100 pM and 1 nM) or a combination of STG-175 (0.25 μM) with either telaprevir (2.5 μM), boceprevir (2.5 μM) or daclatasvir (100 pM) for 22 successive passages. At each passage, fresh drug was added and a sample of cells was taken to quantify HCV RNA levels by RT-qPCR.

[2] = test system: wild-type Con1 (GT1b) replicon colonies; assay: Degree of resistance of replicon colonies, wild-type; type: cell-based; conditions: Hepatitis C virus, read-out: EC50 of STG-175, WT colonies
Method: Huh-7 cells expressing subgenomic Con1 (GT1b) replicon were incubated with STG-175 and 100 μg/ml of G418 in 10 cm CellBIND™ plates (Corning). Cells were split every 3 days at 1:6 and G418 concentration was increased sequentially to 200 and 300 μg/mL. […] At this point, medium was changed every 3–4 days until emergence of resistant clones. Clones were individually transferred to 24-well CellBIND using cloning disks. […] Each clone was split in 2 identical plates and was separately maintained under 0.5 or 1.0 μM STG-175 and 100 μg/mL of G418. Once the colonies were established, G418 concentration was increased to 300 μg/mL. […] Briefly, total RNA was prepared using the RNeasy Plus Mini Kit as per manufacturer’s recommendation. […] The amplicons were gel purified, quantitated and sequenced using primers located internally in NS5A or NS5B reading to the 5’ and 3’ ends. Sequences were assembled and analyzed using the ClustalW algorithm within the MacVector program. […]
Fig 3 Replicon clearance, replication rebound and resistance analyses. […] At each passage, samples of cells were collected, RNA extracted and analyzed by RT-PCR for HCV RNA levels. […] At each passage, sample of cells were collected, RNA extracted and analyzed by RT-PCR for HCV RNA levels. […] Data are expressed as number of HCV RNA copies per cell. […] Data are expressed as mean of relative light units and calculated EC50s are presented. […]

[3] = test system: NS5Bi-resistant S282T NS5B Con1 GT1b replicon; assay: Electroporated Con1 RNA replication in Huh7.5.1 cells (RT-qPCR), S282T NS5B; type: cell-based; conditions: Hepatitis C virus, Huh-7.5.1, 192 h, read-out: EC50 S282T NS5B
Excerpt: The GT1b subgenomic firefly luciferase reporter replicon pFK-I389/NS3–3 was provided by R. Bartenschlager. The GT1B subgenomic NS3, NS5A and NS5B mutants were created via homologous recombination using the In-Fusion HD Cloning kit (Clontech) as we described previously. […] The in vitro transcription of wild-type and mutant Con1 RNA was accomplished using the T7 MEGAscript kit (Ambion) by following the manufacturer’s instructions. In vitro-transcribed RNAs were introduced into Huh7.5.1 cells by electroporation. Trypsinized cells were washed twice and resuspended in phosphate-buffered saline (PBS) (calcium-free and magnesium-free) at 1x 10^7 cells per ml. Ten micrograms of RNA for each mutant was mixed with 0.4 mL of cells in a 4-mm cuvette, and a Bio-Rad Gene Pulser system was used to deliver a single pulse at 0.27 kV, 100 ohms, and 960 μF. […] RNA transfection efficiency and HCV subgenomic replication were assessed by reverse transcription-quantitative PCR (RT-qPCR) and presented as genome equivalents (GE) per microgram of total RNA as described previously. We measured by RT-qPCR the replication of wild-type, STG-175-, NS5Ai-, NS3i- and NS5Bi-resistant mutants in the presence of increasing concentrations of SGT-175, daclatasvir, telaprevir, boceprevir and sofosbuvir over a period of 8 days.
Fig 5 Cross-resistance analyses. […] Data are expressed as log of GE/μg of total RNA. […]

SMILES: CC=CCC(C)C(O)C1C(=O)NC(CC)C(=O)N(C)C(CSCCCCO)C(=O)N(C)C(CC(C)(C)O)C(=O)NC(C(C)C)C(=O)N(C)C(CC(C)C)C(=O)NC(C)C(=O)NC(C)C(=O)N(C)C(CC(C)C)C(=O)N(C)C(CC(C)C)C(=O)N(C)C(C(C)C)C(=O)N1C (stereo not drawn) [STG-175]
- cell culture passages required to detect emergence of resistant replicon colonies [1]: > 16 passages
- passage at which resistant variants emerged (CypI comparison) ([1]; 0.25 μM of drug selection): 18 passage
- passage at which resistance began ([1]; 1 μM drug pressure, first account (Fig 3B)): 19 passage
- passage at which resistant variants emerged (CypI comparison) ([1]; 1 μM of drug selection): 21 passage
- pEC50 [2]: 7.80
- pEC50 [3]: 8.27
